From US20080318943A1, “Compounds and Uses Thereof - 848” (ASTRAZENECA AB, priority 2007, published 2008)

Tests used:
[1] = molecular target: T1, GABAA2 receptors (α2, β3, γ2 receptor subunits transfected into Sf9 cells) (Homo sapiens, UniProt P18507+P47869); assay: GABAA2 Binding Method ([3H]-Flunitrazepam displacement); settings: [3H]-Flunitrazepam ~2 nM, α2β3γ2 Sf9 membranes, 1 hr at 4° C.
T1 construct: host or cells: Sf9 cells (membranes)
Procedure, shortened: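 Membranes from Sf9 cells expressing α2β3γ2 GABAA receptors incubated with ~2 nM (final) [3H]-flunitrazepam and test compound 1 h at 4 °C, then filtered on GF/B plates with cold-buffer washes. Flumazenil-defined controls; percent of control, IC50 and Ki calculated.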

[2] = molecular target: T2, GABAA receptor α1β2γ2 (Homo sapiens, UniProt P14867+P18507); assay: Two-electrode voltage-clamp potentiation of GABA EC10 current in Xenopus oocytes, GABAA1; assay type: cell-based; settings: percentage potentiation of GABA EC10 current divided by that of diazepam
T2 construct: expressed in transfected cells; host or cells: Xenopus laevis oocytes injected with cRNA
Procedure, shortened: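 Human GABAA receptors expressed in Xenopus oocytes by cRNA injection (α:β:γ molar ratio ~1:1:10 for α1β2γ2, 1:1:1 for α2β3γ2), recorded 2-10 days later by two-electrode voltage clamp at −60 mV in ND-96, pH 7.5. Modulator preapplied 30 s before GABA at per-oocyte EC10. Peak-current percent potentiation over GABA alone, normalised to diazepam.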

[3] = molecular target: T3, GABAA receptor α2β3γ2 (Homo sapiens, UniProt P18507+P47869); assay: Two-electrode voltage-clamp potentiation of GABA EC10 current in Xenopus oocytes, GABAA2; assay type: cell-based; settings: percentage potentiation of GABA EC10 current divided by that of diazepam
T3 construct: expressed in transfected cells; host or cells: Xenopus laevis oocytes injected with cRNA
Protocol: GABAA receptors were heterologously expressed in Xenopus oocytes by injecting cRNA corresponding to human α1, α2, α3, α5, β2, P3 and γ2 subunits of the GABAA receptor genes. The specific subunit combinations (subtypes) were as follows: α1β2γ2, α2β3γ2, α3β3γ2, and α5β3γ2. The EC10 of GABA is approximated for each cell. Stability of GABA-mediated (EC10) current is established. Modulatory effect of test compound is determined and compared across subtypes. […] Thus, the assay can characterize modulatory effects and determine subtype selectivity of test compounds on major subtypes of GABAA receptors.
Xenopus laevis frogs (Xenopus I, Kalamazoo, Mich.) were anesthetized using 0.15% tricaine. Surgically removed ovarian lobes were teased out in OR2 solution (82 NaCl, 2.5 KCl, 5 HEPES, 1.5 NaH2PO4, 1 MgCl2, 0.1 EDTA, in mM, pH 7.4). The oocytes were defolliculated by incubation in 25 mL OR2 containing 0.2% collagenase 1A (SIGMA) two times for about 60 minutes on a platform shaker and stored in Leibovitz's L-15 medium. Oocytes were injected the following day in 0.5× Leibovitz's L-15 medium containing […] gentamycin, 10 units/ml penicillin, and […] streptomycin.
Capped cRNAs from the linearized vectors containing human α1, β2 and γ2 subunits of the GABAA receptor genes were mixed in ratio of […]. Oocytes were injected with 25-50 nL of mixed RNA with an appx molar ratio for α1, β2, and γ2 as 1:1:10. Oocyte recordings were done 2-10 days after injection. The same methods apply to subtypes derived from α2β3γ2, α3β3γ2, and α5β3γ2, except for 1:1:1 ratio was used for α, β, and γ subunits.
All measurements were done in a medium containing ND-96 (96 NaCl, 2 KCl, 1.8 CaCl2.2H2O, 1 MgCl2.6H2O, 5 HEPES, in mM, pH 7.5). Two-electrode voltage-clamp recording was carried out using OpusXpress amplifier (Axon Instruments, Foster City, Calif.), which allows simultaneous recording from 8 oocytes. Oocytes were impaled with two electrodes of 1-2 MΩ tip resistance when filled with 3M KCl. Recordings were begun when membrane potential became stable at potentials negative to −50-−60 mV. Membrane potential was held at −60 mV. […] The concentration of GABA corresponded to the EC10 value calculated for each oocyte. The modulator pulses started 30 s before the GABA pulse so as to allow preincubation with the modulator. A set of 3 pulses with just GABA without modulator was given prior to the modulator-containing pulses to define the baseline GABA response. Two oocytes per each experiment were dedicated to observe the effect of diazepam on GABA response to ensure the presence of γ2 subunit in the GABAA pentameric complex, which imparts diazepam sensitivity to the complex.
Current amplitude (i) was measured from baseline to peak using Clampfit (Axon Inst., Foster City, Calif.). Potentiation was calculated as percent change from the baseline GABA current flux 100×(imod/icontrol)−1) where imod=current mediated by modulator+GABA and icontrol=current mediated by GABA alone. […] Similarly, a value of −50% potentiation means the presence of modulator caused a 50% decrease in the control current. Various other data shown here were fitted and plotted using GraphPad Prism (GraphPad Software, Inc. San Diego, Calif.). The percentage potentiation was converted to relative potentiation by dividing it with percentage potentiation value obtained from the same assay with diazepam as a control.

T3 sequence (P47869 29-451): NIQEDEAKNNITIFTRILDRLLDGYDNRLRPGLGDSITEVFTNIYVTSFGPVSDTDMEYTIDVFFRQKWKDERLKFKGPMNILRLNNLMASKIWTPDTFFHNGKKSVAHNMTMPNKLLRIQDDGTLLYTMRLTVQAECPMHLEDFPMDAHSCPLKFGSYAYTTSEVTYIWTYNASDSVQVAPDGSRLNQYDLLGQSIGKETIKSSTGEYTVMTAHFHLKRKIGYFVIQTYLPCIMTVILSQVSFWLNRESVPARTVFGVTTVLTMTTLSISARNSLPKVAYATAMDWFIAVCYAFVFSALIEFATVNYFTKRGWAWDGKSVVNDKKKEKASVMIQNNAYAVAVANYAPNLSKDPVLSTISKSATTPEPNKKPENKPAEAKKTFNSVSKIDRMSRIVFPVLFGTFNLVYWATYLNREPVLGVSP
T3 sequence (P28472 26-473 partner): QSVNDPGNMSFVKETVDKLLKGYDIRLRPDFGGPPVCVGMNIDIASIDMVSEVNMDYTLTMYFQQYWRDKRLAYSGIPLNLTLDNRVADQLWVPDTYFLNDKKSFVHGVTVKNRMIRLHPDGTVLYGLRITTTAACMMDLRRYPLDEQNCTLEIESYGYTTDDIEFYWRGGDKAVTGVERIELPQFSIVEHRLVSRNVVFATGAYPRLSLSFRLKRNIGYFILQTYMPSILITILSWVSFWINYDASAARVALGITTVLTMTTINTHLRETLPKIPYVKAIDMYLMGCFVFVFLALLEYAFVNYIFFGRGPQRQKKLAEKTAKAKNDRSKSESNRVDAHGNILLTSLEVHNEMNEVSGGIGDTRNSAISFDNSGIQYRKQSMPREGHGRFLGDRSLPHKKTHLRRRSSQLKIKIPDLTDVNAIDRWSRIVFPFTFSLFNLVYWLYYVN
T3 sequence (P18507 40-475): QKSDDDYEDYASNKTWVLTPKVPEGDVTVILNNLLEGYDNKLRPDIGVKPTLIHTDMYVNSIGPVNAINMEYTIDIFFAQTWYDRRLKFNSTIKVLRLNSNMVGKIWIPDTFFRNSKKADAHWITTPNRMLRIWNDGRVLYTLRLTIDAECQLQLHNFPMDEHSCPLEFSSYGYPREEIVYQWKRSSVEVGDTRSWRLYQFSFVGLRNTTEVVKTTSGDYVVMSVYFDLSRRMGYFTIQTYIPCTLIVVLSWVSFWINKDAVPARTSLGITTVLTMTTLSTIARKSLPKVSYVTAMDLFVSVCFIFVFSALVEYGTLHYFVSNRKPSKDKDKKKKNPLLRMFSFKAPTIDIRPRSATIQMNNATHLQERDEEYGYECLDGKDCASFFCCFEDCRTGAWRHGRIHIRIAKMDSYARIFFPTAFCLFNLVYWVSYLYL
T1 sequence (P47869 29-451): as the sequence (P47869 29-451) above
T1 sequence (P28472 26-473 partner): as the sequence (P28472 26-473 partner) above
T1 sequence (P18507 40-475): as the sequence (P18507 40-475) above
T2 sequence (P14867 28-456): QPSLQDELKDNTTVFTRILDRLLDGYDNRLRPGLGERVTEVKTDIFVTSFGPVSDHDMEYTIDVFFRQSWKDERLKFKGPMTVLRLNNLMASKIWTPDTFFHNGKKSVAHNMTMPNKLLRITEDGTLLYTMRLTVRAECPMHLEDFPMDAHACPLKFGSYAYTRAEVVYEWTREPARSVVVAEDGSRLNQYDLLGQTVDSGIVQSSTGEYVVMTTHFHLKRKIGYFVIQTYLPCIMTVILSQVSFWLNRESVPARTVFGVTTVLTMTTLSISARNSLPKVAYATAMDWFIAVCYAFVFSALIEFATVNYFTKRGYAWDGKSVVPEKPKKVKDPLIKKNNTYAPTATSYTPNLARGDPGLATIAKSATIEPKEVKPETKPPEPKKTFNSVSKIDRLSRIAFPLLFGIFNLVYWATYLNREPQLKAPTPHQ
T2 sequence (P47870 25-512 partner limits assumed): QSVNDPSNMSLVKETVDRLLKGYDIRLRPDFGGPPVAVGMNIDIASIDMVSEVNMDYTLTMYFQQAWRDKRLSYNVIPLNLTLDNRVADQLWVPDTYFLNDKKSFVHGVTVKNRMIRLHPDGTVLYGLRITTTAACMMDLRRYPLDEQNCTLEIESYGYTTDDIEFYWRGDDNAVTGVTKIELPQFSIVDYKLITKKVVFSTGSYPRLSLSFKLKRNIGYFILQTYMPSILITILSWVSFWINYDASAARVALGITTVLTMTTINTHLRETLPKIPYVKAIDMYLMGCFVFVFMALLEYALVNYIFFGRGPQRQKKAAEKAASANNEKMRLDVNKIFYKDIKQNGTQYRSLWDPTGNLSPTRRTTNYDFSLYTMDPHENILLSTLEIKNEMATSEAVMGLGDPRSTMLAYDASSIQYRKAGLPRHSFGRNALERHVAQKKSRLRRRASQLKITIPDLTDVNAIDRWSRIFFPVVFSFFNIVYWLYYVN
T2 sequence (P18507 40-475): as the sequence (P18507 40-475) above

Row | Compound | Ki [1] [nM] | Relative Potentiation for GABAA1 [2] | Relative Potentiation for GABAA2 [3] | Relative Potentiation for GABAA1 ([2]; listed as 9-amino-2-cyclobutyl-5-(2,4-dimethoxypyrimidin-5-yl)-2,3-dihydro-1H-pyrrolo[3,4-)
1 | Cc1nn(C)cc1-c1cccc2c(N)c3c(nc12)CN(C1CCC1)C3=O [9-Amino-2-cyclobutyl-5-(1,3-dimethyl-1H-pyrazol-4-yl)-2,3-dihydropyrrolo[3,4-b]quinolin-1-one] | 3.91 | 0.017 | 0.43 | –
2 | C=Cc1ccccc1-c1c(F)ccc2c(N)c3c(nc12)CN(C1CCC1)C3=O [9-Amino-2-cyclobutyl-6-fluoro-5-(2-vinylphenyl)-2,3-dihydropyrrolo[3,4-b]quinolin-1-one] | 1.68 | 0.11 | 0.11 | –
3 | COc1cccc(F)c1-c1cccc2c(N)c3c(nc12)CN(C1CC1)C3=O (atropisomer, axis not shown; (P)) | 3.63 | −0.018 | 0.38 | –
4 | COc1ccc(CN2Cc3nc4c(-c5cc(C)nn5C)cccc4c(N)c3C2=O)cc1 [9-amino-5-(1,3-dimethyl-1H-pyrazol-5-yl)-2-(4-methoxybenzyl)-2,3-dihydro-1H-pyrrolo[3,4-b]quinolin-1-one] | 10.3 | 0.45 | 0.64 | –
5 | COc1ncc(-c2cccc3c(N)c4c(nc23)CN(C2CCC2)C4=O)c(OC)n1 [Example 123, 9-Amino-2-cyclobutyl-5-(2,4-dimethoxypyrimidin-5-yl)-2,3-dihydropyrrolo[3,4-b]quinolin-1-one] | 4.23 | 0.13 | 0.44 | 0.12
6 | CCN1Cc2nc3c(-c4ccc(OC)c(F)c4)cccc3c(N)c2C1=O [9-amino-2-ethyl-5-(3-fluoro-4-methoxyphenyl)-2,3-dihydro-1H-pyrrolo[3,4-b]quinolin-1-one] | 42.5 | 0.012 | 0.065 | –
7 | COc1ccc(-c2cccc3c(N)c4c(nc23)CN(C2CCC2)C4=O)c(OC)c1 [Example 53, 9-Amino-2-cyclobutyl-5-(2,4-dimethoxyphenyl)-2,3-dihydropyrrolo[3,4-b]quinolin-1-one] | 2.13 | 0.1 | 0.24 | –
8 | Cc1nc(F)ccc1-c1cccc2c(N)c3c(nc12)CN(C1CCC1)C3=O [9-Amino-2-cyclobutyl-5-(6-fluoro-2-methylpyridin-3-yl)-2,3-dihydropyrrolo[3,4-b]quinolin-1-one] | 2.39 | 0.13 | 0.31 | –
9 | COc1ncncc1-c1cccc2c(N)c3c(nc12)CN(C1CCC1)C3=O [9-Amino-2-cyclobutyl-5-(4-methoxy-pyrimidin-5-yl)-2,3-dihydropyrrolo[3,4-b]quinolin-1-one] | 0.631 | 0.083 | 0.52 | –
10 | COc1cnccc1-c1cccc2c(N)c3c(nc12)CN(C1CCC1)C3=O [9-Amino-2-cyclobutyl-5-(3-methoxypyridin-4-yl)-2,3-dihydropyrrolo[3,4-b]quinolin-1-one] | 0.64 | 0.1 | 0.32 | –
11 | Nc1c2c(nc3c(-c4c(F)cccc4F)cccc13)CN(C1CC1)C2=O [Example 114, 9-Amino-2-cyclopropyl-5-(2,6-difluorophenyl)-2,3-dihydropyrrolo[3,4-b]quinolin-1-one] | 3.5 | −0.058 | 0.13 | –
12 | COc1ncccc1-c1c(F)ccc2c(N)c3c(nc12)CN(C1CCOC1)C3=O (stereo not shown) | 18.8 | 0.097 | 0.32 | –
13 | CCCN1Cc2nc3c(-c4ccc(F)cc4OC)cccc3c(N)c2C1=O [9-amino-5-(4-fluoro-2-methoxyphenyl)-2-propyl-2,3-dihydro-1H-pyrrolo[3,4-b]quinolin-1-one] | 60.8 | 0.2 | 0.2 | –
14 | COc1ccc(CN2Cc3nc4c(-c5cccnc5F)cccc4c(N)c3C2=O)cc1 [9-amino-5-(2-fluoropyridin-3-yl)-2-(4-methoxybenzyl)-2,3-dihydro-1H-pyrrolo[3,4-b]quinolin-1-one] | 6.82 | 0.18 | 0.32 | –
15 | CCCN1Cc2nc3c(-c4cccnc4F)cccc3c(N)c2C1=O [Example 13, 9-Amino-5-(2-fluoropyridin-3-yl)-2-propyl-2,3-dihydropyrrolo[3,4-b]quinolin-1-one] | 26.7 | 0.21 | 0.37 | –
16 | COc1ccc(F)c(-c2c(F)ccc3c(N)c4c(nc23)CN(C2CC2)C4=O)c1F [9-Amino-2-cyclopropyl-5-(2,6-difluoro-3-methoxyphenyl)-6-fluoro-2,3-dihydropyrrolo[3,4-b]quinolin-1-one] | 4.12 | 0.062 | 0.17 | –
17 | N#Cc1ccccc1-c1cccc2c(N)c3c(nc12)CN(C1CC1)C3=O [2-(9-Amino-2-cyclopropyl-1-oxo-2,3-dihydro-1H-pyrrolo[3,4-b]quinolin-5-yl)-benzonitrile] | 16.3 | −0.064 | 0.087 | –
18 | COc1ccc(Cl)c(-c2cccc3c(N)c4c(nc23)CN(C2CC2)C4=O)c1 [9-Amino-5-(2-chloro-5-methoxyphenyl)-2-cyclopropyl-2,3-dihydropyrrolo[3,4-b]quinolin-1-one] | 33.2 | 0.068 | 0.14 | –
19 | COc1cccc(F)c1-c1c(F)ccc2c(N)c3c(nc12)CN(C)C3=O [9-Amino-6-fluoro-5-(2-fluoro-6-methoxyphenyl)-2-methyl-2,3-dihydropyrrolo[3,4-b]quinolin-1-one] | 8.14 | −0.02 | 0.088 | –
20 | COc1ccc(F)cc1-c1c(F)ccc2c(N)c3c(nc12)CN(C1CC1)C3=O [Example 61, 9-Amino-2-cyclopropyl-6-fluoro-5-(5-fluoro-2-methoxyphenyl)-2,3-dihydropyrrolo[3,4-b]quinolin-1-one] | 7.4 | 0.08 | 0.23 | –
21 | COc1cc(F)ccc1-c1c(F)ccc2c(N)c3c(nc12)CN(C1CCC1)C3=O [9-Amino-2-cyclobutyl-6-fluoro-5-(4-fluoro-2-methoxyphenyl)-2,3-dihydropyrrolo[3,4-b]quinolin-1-one] | 1.2 | 0.0067 | 0.15 | –
22 | CCCN1Cc2nc3c(-c4cc(OC)ccc4F)cccc3c(N)c2C1=O [9-amino-5-(2-fluoro-5-methoxyphenyl)-2-propyl-2,3-dihydro-1H-pyrrolo[3,4-b]quinolin-1-one] | 12.5 | 0.39 | 0.39 | –
